Measurements from patent US20240360361A1, “PIPERAZINE BIS-UREA AND BIS-THIOUREA-BASED CORROSION INHIBITOR COMPOUNDS FOR STEEL PROTECTION” (QATAR UNIVERSITY, priority 2023, published 2024).
Where “and” joins values, the source holds several entries; their conditions need not be identical. Equal values may be shown once.

Assays:
[1] = Tafel extrapolation (potentiodynamic polarization) of carbon steel in 1M HCl
Source text: (§1) Corrosion inhibition efficiency (IE % or r %) is a measure of the efficiency of an inhibitor to effectively decrease a corrosion rate. Corrosion inhibition efficiency may be measured with the Tafel extrapolation of potentiodynamic polarization (PDP).
(§2) To investigate the effect of Inhibitor 1 on corrosion mechanisms, electrochemical measurements were obtained using Tafel and A.C. impedance experiments. FIGS. 1 and 2 show Tafel and AC impedance curves of carbon steel after adding 50 to 200 ppm of Inhibitor 1 to 1M HCl solution.
(§3) The Tafel extrapolation method was used to fit the curves and obtain corrosion parameters. […] The lowest reported current density at 200 ppm concentration was 4.5 μA·cm^−2, […] than 155 μA·cm^−2 recorded for blank 1M HCl. […] The charge transfer resistance reached the maximum of 1430 Ω·cm^2 at 200 ppm and Inhibitor 1 yielded around 93% efficiency after enhancing it from 116 Ω·cm^2 for the blank solution. Inhibitor 1 is a highly efficient corrosion inhibitor even at low concentrations; at concentrations of 50 ppm and 75 ppm, it yielded an 82% and 90% efficiency, respectively.

[2] = AC impedance of carbon steel in 1M HCl; details: 200 ppm inhibitor
Source text: as §2, §3

[3] = Tafel extrapolation of C-steel in 5M HCl, three-electrode cell
Description: as §1
(§4) Electrochemical experiments were carried out using the three-electrode cell assembly (FIG. 4). Tafel and AC impedance measurements were obtained to elucidate the corrosion mechanisms and understand the interactions at the solution-surface interface. The effect of adding 10 to 200 ppm Inhibitor 2 on the C-steel corrosion in 5M HCl solution was determined by AC impedance and Tafel curves (FIG. 5 and FIG. 6).
(§5) Furthermore, electrochemical parameters describing the kinetics of the corrosion process were acquired following the Tafel extrapolation method to fit the curves of FIG. 6. […] Inhibitor 2 successfully achieved 95% efficiency in the highly corrosive condition of 5M HCl at a tolerable quantity of only 200 ppm concentration.

[4] = AC impedance of C-steel in 5M HCl, three-electrode cell; parameters: unit not given here; details: 200 ppm inhibitor
Description: as §4, §5

In the case of `O=C(NCCCN1CCN(CCCNC(=O)Nc2ccc([N+](=O)[O-])cc2)CC1)Nc1ccc([N+](=O)[O-])cc1` [Inhibitor 1], the “% Inhibition Efficiency” value ([1]; 50 ppm inhibitor) is reported as 82%, the Corrosion rate ([1]; 50 ppm inhibitor) is reported as 13 mils · year^−1 and the Current density ([1]; 50 ppm inhibitor) is reported as 29 μA · cm^−2. The “% Inhibition Efficiency” value ([1]; 75 ppm inhibitor) was 90%, the Corrosion rate ([1]; 75 ppm inhibitor) was 6.8 mils · year^−1 and the Current density ([1]; 75 ppm inhibitor) was 15 μA · cm^−2. The “% Inhibition Efficiency” value ([1]; 100 ppm inhibitor) was 92%, the Corrosion rate ([1]; 100 ppm inhibitor) was 5.5 mils · year^−1 and the Current density ([1]; 100 ppm inhibitor) was 12 μA · cm^−2. The “% Inhibition Efficiency” value ([1]; 200 ppm inhibitor) was 97%, the Corrosion rate ([1]; 200 ppm inhibitor) was 2 mils · year^−1 and 2.0 mils · year^−1 and the Current density ([1]; 200 ppm inhibitor) was 4.5 μA · cm^−2. The Charge transfer resistance [2] was 1430 Ω·cm^2, the “Efficiency from charge transfer resistance (AC impedance)” value [2] was “around 93%” and the Corrosion rate ([3]; 10 ppm inhibitor) was 360 mils · year^−1. For the same compound, the Current density ([3]; 10 ppm inhibitor) was 787 μA · cm^−2, the “Inhibition Efficiency %” value ([3]; 10 ppm inhibitor) was 57% and the Corrosion rate ([3]; 50 ppm inhibitor) was 196 mils · year^−1. The Current density ([3]; 50 ppm inhibitor) was 429 μA · cm^−2, the “Inhibition Efficiency %” value ([3]; 50 ppm inhibitor) was 77% and the Corrosion rate ([3]; 100 ppm inhibitor) was 96 mils · year^−1. The Current density ([3]; 100 ppm inhibitor) was 209 μA · cm^−2, the “Inhibition Efficiency %” value ([3]; 100 ppm inhibitor) was 89% and the Corrosion rate ([3]; 200 ppm inhibitor) was 46 mils · year^−1. For the same compound, the Current density ([3]; 200 ppm inhibitor) was 100 μA · cm^−2, the “Inhibition Efficiency %” value ([3]; 200 ppm inhibitor) was 95% and the “Reduction of current density versus 5M HCl blank” value ([3]; 200 ppm inhibitor) was “about 18.5 fold”.

With `O=[N+]([O-])c1ccc(NC(=S)NCCCN2CCN(CCCNC(=S)Nc3ccc([N+](=O)[O-])cc3)CC2)cc1` [Inhibitor 2] the Corrosion rate ([3]; 200 ppm inhibitor) was 46 mils · year^−1, the “Inhibition Efficiency %” value ([3]; 200 ppm inhibitor) was 95% and the “Charge transfer resistance (RCT)” value [4] was 83.4.
